Laboratory results as given in EP0013144A1, “Substituted diphenylamine derivatives, compositions and herbicidal uses thereof, and processes for their preparation” (ICI AUSTRALIA LIMITED, priority 1978, dated 1980).

Key:
Type in all cases: in vivo
Wild Oats = experiment: Post-emergence herbicidal activity (Example 32); details: 3 weeks after spraying
Experimental: (§1) Concentrated formulations of the compounds of the invention were prepared by: • a) in the case of oils and waxy solids, dissolving the compound in toluene containing 7% v/v "Teric" N13 ("Teric" is a Trade MarK and "Teric" N13, a product of ethoxylation of nonylphenol, is available from ICI Australia Limited) and 3% v/v "Kemmat" SC15B ("Kemmat" is a Trade Mark and "Kemmat" SC15B is a formulation of calcium dodecylbenzene sulfonate); or • b) in the case of crystalline solids, adding 5 parts by weight of the compound and 1 part by weight of . ''Dyapol" PT ("Dyapol" is a Trade Mark and "Dyapol" PT is an anionic suspending agent) to 94 parts by weight of an aqueous solution containing 0.25% v/v of "Teric" N8 (a product of ethoxylation of nonylphenol) and ball-milling the mixture to produce a stable suspension. The emulsifiable concentrates and suspensions were then diluted with water to give an aqueous composition of the required concentration suitable for use in the evaluation of the pre-emergence and post-emergence herbicidal activity of the compounds of the invention.
(§2) The post-emergent herbicidal activity of the compounds of the invention formulated as described in Example 30 was assessed by the following procedure.
(§3) The seeds of the test species were sown in rows 2 cm deep in soil contained in seed boxes. The monocotyledonous plants and the dicotyledonous plants were sown in separate seed boxes in duplicate. The four seed boxes were placed in a glasshouse, lightly watered with an overhead spray to initiate germination and then sub-irrigated as required for optimum plant growth. After the plants had grown to a height of about 10 to 12.5 cm one box of each of the monocotyledonous plants and the dicotyledonous plants was removed from the glasshouse and sprayed with the required quantity of a composition of the invention. After spraying the boxes were returned to the glasshouse for further 3 weeks and the effects of the treatment was visually assessed by comparison with the untreated controls. The results are presented in Table 4 where the damage to plants is rated on a scale of from 0 to 3 where 0 represents 0 to 25% damage, 3 represents 75 to 99% kill and 3+ represents 100% kill. A dash (-) means that no experiment was carried out.

Sunflower [1] = experiment: Post-emergence herbicidal activity (Example 32); details: 3 weeks after spraying
Experimental: as §1, §2, §3

Japanese millet = experiment: Post-emergence herbicidal activity (Example 32); details: 3 weeks after spraying
Experimental: as §1, §2, §3

Mustard [2] = experiment: Post-emergence herbicidal activity (Example 32); details: 3 weeks after spraying
Experimental: as §1, §2, §3

Ryegrass [3] = experiment: Post-emergence herbicidal activity (Example 32); details: 3 weeks after spraying
Experimental: as §1, §2, §3

Ipomea [4] = experiment: Post-emergence herbicidal activity (Example 32); details: 3 weeks after spraying
Experimental: as §1, §2, §3

Wheat [5] = experiment: Post-emergence herbicidal activity (Example 32); set-up: key: 0-3 scale: 0 = 0-25% damage, 3 = 75-99% kill, 3+ = 100% kill; details: 3 weeks after spraying
Experimental: as §1, §2, §3

Wheat [6] = experiment: Pre-emergence herbicidal activity (Example 31); set-up: key: 0-3 scale: 0 = 0-25% damage, 3 = 75-99% kill, 3+ = 100% kill; details: after three weeks
Experimental: as §1
(§4) The pre-emergent herbicidal activity of the compounds of the invention formulated as described in Example 30 was assessed by the following procedure.
(§5) The seeds of the test species were sown in rows 2 cm deep in soil contained in seed boxes. The monocotyledonous plants and the dicotyledonous plants were sprayed with the required quantity of a composition of the invention. Two duplicate seed Doxes were prepared in the same manner but were not sprayed with a composition of the invention and were used for comparison purposes. All the boxes were placed in a glasshouse, lightly watered with an overhead spray to initiate germination and then sub-irrigated as required for optimum plant growth. After three weeks the boxes were removed from the glasshouse and the effect of the treatment was visually assessed. The results are presented in Table 3 where the damage to plants is rated on a scale of from 0 to 3 where 0 represents from 0 to 25% damage, 3 represents 75 to 99% kill and 3+ represents 100% kill.
(§6) A dash (-) means that no experiment was carried out.

Ryegrass [7] = experiment: Pre-emergence herbicidal activity (Example 31); set-up: key: 0-3 scale: 0 = 0-25% damage, 3 = 75-99% kill, 3+ = 100% kill; details: after three weeks
Experimental: as §1, §4, §5, §6

Sunflower [8] = experiment: Pre-emergence herbicidal activity (Example 31); details: after three weeks
Experimental: as §1, §4, §5, §6

Mustard [9] = experiment: Pre-emergence herbicidal activity (Example 31); details: after three weeks
Experimental: as §1, §4, §5, §6

Ipomea [10] = experiment: Pre-emergence herbicidal activity (Example 31); details: after three weeks
Experimental: as §1, §4, §5, §6

Row | Compound | damage to plants, Ot (Wild Oats; 5 kg/ha) | damage to plants, Sf (Sunflower [1]; 5 kg/ha) | damage to plants, Jm (Japanese millet; 5 kg/ha) | damage to plants, Ms (Mustard [2]; 5 kg/ha) | damage to plants, Rg (Ryegrass [3]; 5 kg/ha) | damage to plants, Ip (Ipomea [4]; 5 kg/ha) | damage to plants, Wh (Wheat [5]; 5 kg/ha) | damage to plants, Wh (Wheat [6]; 1 kg/ha) | damage to plants, Wh (Wheat [6]; 5 kg/ha) | damage to plants, Rg (Ryegrass [7]; 1 kg/ha) | damage to plants, Rg (Ryegrass [7]; 5 kg/ha) | damage to plants, Sf (Sunflower [8]; 1 kg/ha) | damage to plants, Sf (Sunflower [8]; 5 kg/ha) | damage to plants, Ms (Mustard [9]; 1 kg/ha) | damage to plants, Ms (Mustard [9]; 5 kg/ha) | damage to plants, Ip (Ipomea [10]; 1 kg/ha) | damage to plants, Ip (Ipomea [10]; 5 kg/ha) | damage to plants, Ot (Wild Oats; 1 kg/ha) | damage to plants, Sf (Sunflower [1]; 1 kg/ha) | damage to plants, Jm (Japanese millet; 1 kg/ha) | other results
1 | COC(=O)C(C)Oc1ccc(N(C)c2ccc(C(F)(F)F)cc2)cc1 (stereo not shown) [Compound 14, Methyl 2-[4-(4-trifluoromethyl-N-methylanilino)phenoxy]-propionate] | 0 (0 represents 0 to 25% damage) | 2 | 3 (3 represents 75 to 99% kill) | 3+ (3+ represents 100% kill) | 0 (0 represents 0 to 25% damage) | 3+ (3+ represents 100% kill) | 0 (0 represents 0 to 25% damage) | – | – | – | – | – | – | – | – | – | – | – | – | – | –
2 | COC(=O)C(C)Oc1ccc(Nc2ccc(C)cc2[N+](=O)[O-])cc1 (stereo not shown) [Compound 26] | 1 | 0 (0 represents 0 to 25% damage) | 3+ (3+ represents 100% kill) | 0 (0 represents 0 to 25% damage) | 3 (3 represents 75 to 99% kill) | 0 (0 represents 0 to 25% damage) | 3 (3 represents 75 to 99% kill) | 0 (0 represents from 0 to 25% damage) | 1 | 2 | 3+ (3+ represents 100% kill) | 0 (0 represents from 0 to 25% damage) | 0 (0 represents from 0 to 25% damage) | 0 (0 represents from 0 to 25% damage) | 0 (0 represents from 0 to 25% damage) | 0 (0 represents from 0 to 25% damage) | 0 (0 represents from 0 to 25% damage) | 1 | 0 (0 represents 0 to 25% damage) | 3 (3 represents 75 to 99% kill) | damage to plants, Ms (Mustard [2]; 1 kg/ha): 0 (0 represents 0 to 25% damage); damage to plants, Rg (Ryegrass [3]; 1 kg/ha): 3 (3 represents 75 to 99% kill); damage to plants, Ip (Ipomea [4]; 1 kg/ha): 0 (0 represents 0 to 25% damage); damage to plants, Wh (Wheat [5]; 1 kg/ha): 2
3 | CC(Oc1ccc(N(C)c2ccc(C(F)(F)F)cc2[N+](=O)[O-])cc1)C(=O)OC1CCCCC1 (stereo not shown) [Compound 80] | 3+ (3+ represents 100% kill) | 0 (0 represents 0 to 25% damage) | 3+ (3+ represents 100% kill) | 0 (0 represents 0 to 25% damage) | 3+ (3+ represents 100% kill) | 0 (0 represents 0 to 25% damage) | 3 (3 represents 75 to 99% kill) | 0 (0 represents from 0 to 25% damage) | 1 | 3 (3 represents 75 to 99% kill) | 3+ (3+ represents 100% kill) | 0 (0 represents from 0 to 25% damage) | 0 (0 represents from 0 to 25% damage) | 0 (0 represents from 0 to 25% damage) | 0 (0 represents from 0 to 25% damage) | 0 (0 represents from 0 to 25% damage) | 0 (0 represents from 0 to 25% damage) | 3+ (3+ represents 100% kill) | 0 (0 represents 0 to 25% damage) | 3+ (3+ represents 100% kill) | damage to plants, Ms (Mustard [2]; 1 kg/ha): 0 (0 represents 0 to 25% damage); damage to plants, Rg (Ryegrass [3]; 1 kg/ha): 3 (3 represents 75 to 99% kill); damage to plants, Ip (Ipomea [4]; 1 kg/ha): 0 (0 represents 0 to 25% damage); damage to plants, Wh (Wheat [5]; 1 kg/ha): 1
